Assay results: patent US9809574B2, “Isoindoline or isoquinoline compounds, a process for their preparation and pharmaceutical compositions containing them” (LES LABORATOIRES SERVIER, priority 2013, dated 2017)
Structures can show the parent of a compound that is named as a salt.

How the values were obtained:
[1] = test system: RS4; 11 leukaemia cell line; assay: In vitro cytotoxicity, Microculture Tetrazolium Assay (MTT); type: cell-based; settings: 11 cells exposed for 48 hours
Description: The cytotoxicity studies were carried out on the RS4; 11 leukaemia cell line and on H146 small Cell Lung Carcinoma cell line. The cells are distributed onto microplates and exposed to the test compounds for 48 hours. The cell viability is then quantified by a colorimetric assay, the Microculture Tetrazolium Assay (Cancer Res., 1987, 47, 939-942).

Bcl-2 protein = Bcl-2 protein (histag-Bcl-2, UniProtKB P10415) (Homo sapiens (Human), UniProt P10415); assay: Inhibition of Bcl-2 by the fluorescence polarisation technique; type: binding; settings: fluorescence polarisation test; incubation for 2 hours; read-out: IC50 (nM) Bcl-2 FP
Excerpt: For partial inhibitors, the percentage fluorescence polarisation inhibition for a given concentration of the test compound is indicated.

Chain of Bcl-2 protein (P10415 whole entry): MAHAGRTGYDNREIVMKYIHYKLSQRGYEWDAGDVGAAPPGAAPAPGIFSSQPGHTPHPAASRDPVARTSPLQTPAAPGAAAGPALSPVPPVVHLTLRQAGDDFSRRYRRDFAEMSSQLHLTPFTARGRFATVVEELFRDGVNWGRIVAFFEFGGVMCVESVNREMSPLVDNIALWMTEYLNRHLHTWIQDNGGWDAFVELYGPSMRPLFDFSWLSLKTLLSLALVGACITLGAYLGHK

Row | IC50 (Bcl-2 protein) [nM] | SMILES | IC50 ([1]; Homo sapiens) [nM] | IC50 [1] [nM]
1 | 3.6 | Cc1c(C(=O)N(C)c2ccc(O)cc2)cc(-c2cc3c(cc2C(=O)N2Cc4ccccc4C[C@H]2C)CN(C(=O)Oc2ccc(CCC(=O)N(C)C)cc2)CC3)n1C [Example 804, 4-[2-(Dimethylcarbamoyl)ethyl]phenyl 6-{4-[(4-hydroxyphenyl)(methyl)carbamoyl]-1,5-dimethyl-1H-pyrrol-2-yl}-7-[(3R)-3-methyl-1,2,3,4-tetrahydroisoquinoline-2-carbonyl]-1,2,3,4-tetrahydroisoquinoline-2-carboxylate] | 2.2 | 
2 | 33 | Cc1c(C(=O)N(C)c2ccc(O)cc2)cc(-c2cc3c(cc2C(=O)N2Cc4ccccc4C[C@H]2C)CN(C(=O)[C@@H](O)c2ccccc2)C3)n1C [Example 806, N-(4-Hydroxyphenyl)-5-(2-[(2S)-2-hydroxy-2-phenylacetyl]-6-{[(3R)-3-methyl-3,4-dihydroisoquinolin-2(1H)-yl]carbonyl}-2,3-dihydro-1H-isoindol-5-yl)-N,1,2-trimethyl-1H-pyrrole-3-carboxamide] | > 150 | 
3 | 3.9 | Cc1c(C(=O)N(C)c2ccc(O)cc2)cc(-c2cc3c(cc2C(=O)N2Cc4ccccc4C[C@H]2CCN2CCOCC2)CN(C(=O)OC2CCCCC2)CC3)n1C [Example 807, Cyclohexyl 6-{4-[(4-hydroxyphenyl)(methyl)carbamoyl]-1,5-dimethyl-1H-pyrrol-2-yl}-7-[(3S)-3-[2-(morpholin-4-yl)ethyl]-1,2,3,4-tetrahydroisoquinoline-2-carbonyl]-1,2,3,4-tetrahydroisoquinoline-2-carboxylate] | 26 | 
4 | 3.1 | Cc1c(C(=O)N(C)c2ccc(O)cc2)cc(-c2cc3c(cc2C(=O)N2Cc4ccccc4C[C@H]2CCCN2CCOCC2)CN(C(=O)OC2CCCCC2)CC3)n1C [Example 809, Cyclohexyl 6-{4-[(4-hydroxyphenyl)(methyl)carbamoyl]-1,5-dimethyl-1H-pyrrol-2-yl}-7-[(3R)-3-[3-(morpholin-4-yl)propyl]-1,2,3,4-tetrahydroisoquinoline-2-carbonyl]-1,2,3,4-tetrahydroisoquinoline-2-carboxylate] | 9.8 | 
5 | 3.8 | Cc1c(C(=O)N(C)c2ccccc2)cc(-c2cc3c(cc2C(=O)N2Cc4ccccc4C[C@H]2CCCN2CCOCC2)CN(C(=O)OC2CCCCC2)CC3)n1C [Example 811, Cyclohexyl 6-{1,5-dimethyl-4-[methyl(phenyl)carbamoyl]-1H-pyrrol-2-yl}-7-[(3R)-3-[3-(morpholin-4-yl)propyl]-1,2,3,4-tetrahydroisoquinoline-2-carbonyl]-1,2,3,4-tetrahydroisoquinoline-2-carboxylate] | 94 | 

Row | SMILES | IC50 (Bcl-2 protein) [nM] | IC50 ([1]; Homo sapiens) [nM] | IC50 [1] [nM]
6 | Cc1ccc(OC(=O)N2CCc3cc(-c4cc(C(=O)N(c5ccc(O)cc5)c5cc(C#N)n(C)c5C)c(C)n4C)c(C(=O)N4Cc5ccccc5C[C@H]4CN4CCOCC4)cc3C2)cc1 [Example 805, Tolyl 6-[4-[(5-cyano-1,2-dimethyl-1H-pyrrol-3-yl)-(4-hydroxyphenyl)carbamoyl]-1,5-dimethyl-1H-pyrrol-2-yl]-7-[(3S)-3-(morpholinomethyl)-3,4-dihydro-1H-isoquinoline-2-carbonyl]-3,4-dihydro-1H-isoquinoline-2-carboxylate hydrochloride] | 3.1 |  | 0.12
7 | Cc1c(C(=O)N(C)c2ccc(O)cc2)cc(-c2cc3c(cc2C(=O)N2Cc4ccccc4C[C@H]2CCCN2CCOCC2)CN(C(=O)Oc2ccccc2)CC3)n1C [Example 808, Phenyl 6-{4-[(4-hydroxyphenyl)(methyl)carbamoyl]-1,5-dimethyl-1H-pyrrol-2-yl}-7-[(3R)-3-[3-(morpholin-4-yl)propyl]-1,2,3,4-tetrahydroisoquinoline-2-carbonyl]-1,2,3,4-tetrahydroisoquinoline-2-carboxylate] | 2.7 | 1.6 | 
